{
  "source": "paper PMC6804443",
  "about": "(Acta Pharmaceutica Sinica. B, 2019)",
  "key": {"[1]": {"tested_on": "ALDH", "assay_type": "in vitro ADME", "conditions": "human, pooled human liver cytosol"}, "[2]": {"target": "T1, OATP1B3 (Homo sapiens, UniProt Q9NPD5)", "T1 sequence (Q9NPD5 1-702)": "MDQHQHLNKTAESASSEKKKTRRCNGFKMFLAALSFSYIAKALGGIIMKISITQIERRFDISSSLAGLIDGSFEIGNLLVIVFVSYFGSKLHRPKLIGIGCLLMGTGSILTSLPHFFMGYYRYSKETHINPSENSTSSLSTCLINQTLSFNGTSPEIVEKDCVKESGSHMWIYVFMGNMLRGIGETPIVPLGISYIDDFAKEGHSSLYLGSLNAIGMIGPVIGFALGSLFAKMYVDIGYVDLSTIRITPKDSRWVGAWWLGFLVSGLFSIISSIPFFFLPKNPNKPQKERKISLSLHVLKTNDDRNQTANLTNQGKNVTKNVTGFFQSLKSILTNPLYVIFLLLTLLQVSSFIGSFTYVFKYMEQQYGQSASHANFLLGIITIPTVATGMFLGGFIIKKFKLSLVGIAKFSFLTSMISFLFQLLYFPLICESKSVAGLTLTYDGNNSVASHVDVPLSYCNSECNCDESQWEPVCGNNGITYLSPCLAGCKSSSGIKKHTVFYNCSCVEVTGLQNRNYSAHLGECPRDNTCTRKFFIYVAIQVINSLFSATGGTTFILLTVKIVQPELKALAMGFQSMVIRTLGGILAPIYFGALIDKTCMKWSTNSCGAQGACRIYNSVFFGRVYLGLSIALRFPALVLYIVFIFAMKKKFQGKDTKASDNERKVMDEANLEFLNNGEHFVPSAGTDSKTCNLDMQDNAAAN", "conditions": "IC50, OATP1B3 [X10], mean ± SD (n = 3)"}, "[3]": {"target": "T1, OATP1B3", "conditions": "antibiotic as perpetrator, salvianolic acid B (X10) as victim; (Cmax × fu-p × R)/IC50"}, "[4]": {"target": "T1, OATP1B3", "assay": "in vitro"}, "[5]": {"target": "T2, UGT2B15 (Homo sapiens, UniProt P54855)", "T2 sequence (P54855 24-530)": "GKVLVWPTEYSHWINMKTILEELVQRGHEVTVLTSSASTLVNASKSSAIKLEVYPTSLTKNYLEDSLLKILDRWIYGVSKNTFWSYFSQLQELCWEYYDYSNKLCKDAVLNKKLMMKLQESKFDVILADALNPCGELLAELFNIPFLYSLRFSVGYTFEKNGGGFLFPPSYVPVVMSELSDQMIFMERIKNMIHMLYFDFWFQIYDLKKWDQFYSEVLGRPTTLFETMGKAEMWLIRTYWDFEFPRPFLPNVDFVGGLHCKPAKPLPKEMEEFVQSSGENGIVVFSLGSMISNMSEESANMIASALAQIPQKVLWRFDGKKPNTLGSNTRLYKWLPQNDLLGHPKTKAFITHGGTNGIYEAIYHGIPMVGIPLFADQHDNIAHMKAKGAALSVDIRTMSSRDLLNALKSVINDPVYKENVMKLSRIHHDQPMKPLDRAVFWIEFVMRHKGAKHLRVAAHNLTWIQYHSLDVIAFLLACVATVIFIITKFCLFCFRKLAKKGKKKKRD", "assay_type": "in vitro ADME", "conditions": "for Inhibition DDI index, UGT2B15: antibiotic as perpetrator, senkyunolide I (X5) as victim, (Cmax × fu-p × R)/IC50"}, "[6]": {"target": "T3, OAT2 (Homo sapiens, UniProt Q9Y694)", "T3 sequence (Q9Y694 1-546 isoform Q9Y694-2)": "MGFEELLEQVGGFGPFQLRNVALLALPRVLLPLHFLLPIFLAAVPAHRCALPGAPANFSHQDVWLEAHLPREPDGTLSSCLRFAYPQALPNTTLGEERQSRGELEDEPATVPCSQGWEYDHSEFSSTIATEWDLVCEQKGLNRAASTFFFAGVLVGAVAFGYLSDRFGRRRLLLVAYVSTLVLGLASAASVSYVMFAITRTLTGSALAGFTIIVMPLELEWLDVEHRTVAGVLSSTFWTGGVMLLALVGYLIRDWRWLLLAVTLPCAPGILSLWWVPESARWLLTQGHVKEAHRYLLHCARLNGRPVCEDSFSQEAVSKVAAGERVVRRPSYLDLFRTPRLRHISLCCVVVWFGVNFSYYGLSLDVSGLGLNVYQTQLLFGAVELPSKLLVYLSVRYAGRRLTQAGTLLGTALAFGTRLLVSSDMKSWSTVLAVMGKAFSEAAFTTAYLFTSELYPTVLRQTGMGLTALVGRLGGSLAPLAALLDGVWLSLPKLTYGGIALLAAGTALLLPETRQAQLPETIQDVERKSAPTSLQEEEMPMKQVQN", "assay": "OAT2 inhibition by antibiotics, transfected HEK293 cells, tanshinol as substrate", "assay_type": "in vitro ADME"}, "[7]": {"target": "T4, OAT1 (Homo sapiens, UniProt Q4U2R8)", "T4 sequence (Q4U2R8 1-563)": "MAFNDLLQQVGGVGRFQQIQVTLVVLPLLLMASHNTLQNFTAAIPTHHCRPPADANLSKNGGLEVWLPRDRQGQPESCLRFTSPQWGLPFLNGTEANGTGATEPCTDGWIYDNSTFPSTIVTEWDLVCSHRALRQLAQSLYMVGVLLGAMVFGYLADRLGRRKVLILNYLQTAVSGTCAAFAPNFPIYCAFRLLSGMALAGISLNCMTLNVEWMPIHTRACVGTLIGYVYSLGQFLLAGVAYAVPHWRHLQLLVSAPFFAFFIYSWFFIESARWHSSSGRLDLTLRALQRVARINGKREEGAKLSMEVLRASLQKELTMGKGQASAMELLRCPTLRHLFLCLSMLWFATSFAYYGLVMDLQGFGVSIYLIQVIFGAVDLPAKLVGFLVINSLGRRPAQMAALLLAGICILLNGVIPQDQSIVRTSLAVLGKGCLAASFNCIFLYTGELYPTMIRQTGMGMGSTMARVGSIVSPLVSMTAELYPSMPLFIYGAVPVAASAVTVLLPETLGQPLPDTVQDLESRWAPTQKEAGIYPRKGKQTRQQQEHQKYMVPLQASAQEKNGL", "assay": "OAT1 inhibition by antibiotics, transfected HEK293 cells, tanshinol as substrate"}, "[8]": {"conditions": "antibiotic as perpetrator, tanshinol (X8) as victim, (Cmax × fu-p × R)/IC50"}},
  "data": [
    {"smiles": "C[C@@H](O)[C@H]1C(=O)N2C(C(=O)O)=C(SCCN=CN)C[C@H]12", "note": "[A1, imipenem]", "values": [
      {"measurement": "IC50", "setting": "[1]", "result": "120 ± 30", "unit": "µM"},
      {"measurement": "inhibition at 1000 μmol/L", "setting": "[1]", "result": "56 to 88", "unit": "%"}
    ]},
    {"smiles": "C[C@@H](O)[C@H]1C(=O)N2C(C(=O)O)=C(S[C@@H]3CN[C@H](C(=O)N(C)C)C3)[C@H](C)[C@H]12", "note": "[A2, meropenem]", "values": [
      {"measurement": "IC50", "setting": "[1]", "result": "164 ± 39", "unit": "µM"},
      {"measurement": "inhibition at 1000 μmol/L", "setting": "[1]", "result": "56 to 88", "unit": "%"}
    ]},
    {"smiles": "CO/N=C(\\C(=O)N[C@@H]1C(=O)N2C(C(=O)O)=C(CSc3nc(=O)c(=O)[nH]n3C)CS[C@H]12)c1csc(N)n1", "note": "[A6, ceftriaxone]", "values": [
      {"measurement": "IC50", "setting": "[2]", "result": "201 ± 48", "unit": "µM"},
      {"measurement": "Inhibition DDI index, OATP1B3", "setting": "[3]", "result": 0.68},
      {"measurement": "inhibition at 1000 μmol/L", "setting": "[4]", "result": "64 to 88", "unit": "%"}
    ]},
    {"smiles": "CC(C)(O/N=C(\\C(=O)N[C@@H]1C(=O)N2C(C(=O)[O-])=C(C[n+]3ccccc3)CS[C@H]12)c1csc(N)n1)C(=O)O", "note": "[A7, ceftazidime]", "values": [
      {"measurement": "IC50", "setting": "[1]", "result": "1030 ± 155", "unit": "µM"},
      {"measurement": "inhibition at 5000 μmol/L", "setting": "[1]", "result": "56 to 88", "unit": "%"}
    ]},
    {"smiles": "CCN1CCN(C(=O)N[C@@H](C(=O)N[C@@H]2C(=O)N3C(C(=O)O)=C(CSc4nnnn4C)CS[C@H]23)c2ccc(O)cc2)C(=O)C1=O", "note": "[A8, cefoperazone]", "values": [
      {"measurement": "IC50", "setting": "[2]", "result": "27 ± 9", "unit": "µM"},
      {"measurement": "IC50", "setting": "[5]", "result": "971 ± 130", "unit": "µM"},
      {"measurement": "Inhibition DDI index, UGT2B15", "setting": "[5]", "result": 0.12},
      {"measurement": "inhibition at 1000 μmol/L", "setting": "[5]; human, cDNA-expressed UGT2B15", "result": "60 to 88", "unit": "%"},
      {"measurement": "Inhibition DDI index, OATP1B3", "setting": "[3]", "result": "1.72–4.43"},
      {"measurement": "inhibition at 1000 μmol/L", "setting": "[4]", "result": "64 to 88", "unit": "%"}
    ]},
    {"smiles": "CO/N=C(\\C(=O)N[C@@H]1C(=O)N2C(C(=O)O)=C(COC(C)=O)CS[C@H]12)c1csc(N)n1", "note": "[A9, cefotaxime]", "values": [
      {"measurement": "IC50", "setting": "[2]", "result": "68 ± 20", "unit": "µM"},
      {"measurement": "Inhibition DDI index, OATP1B3", "setting": "[3]", "result": "1.81–2.14"},
      {"measurement": "inhibition at 1000 μmol/L", "setting": "[4]", "result": "64 to 88", "unit": "%"}
    ]},
    {"smiles": "CCN1CCN(C(=O)N[C@@H](C(=O)N[C@@H]2C(=O)N3[C@@H]2SC(C)(C)[C@@H]3C(=O)O)c2ccccc2)C(=O)C1=O", "note": "[A13, piperacillin]", "values": [
      {"measurement": "IC50", "setting": "[6]", "result": "1210 ± 434", "unit": "µM"},
      {"measurement": "inhibition at 5000 µM", "setting": "[6]; HEK293, read-out: Inhibition of OAT2", "result": "60 to 84", "unit": "%"},
      {"measurement": "Inhibition DDI index, OAT2", "setting": "[6]; [8]", "result": 0.37},
      {"measurement": "IC50", "setting": "[7]", "result": "591 ± 154", "unit": "µM"},
      {"measurement": "Inhibition DDI index, OAT1", "setting": "[7]; [8]", "result": 0.75},
      {"measurement": "inhibition at 5000 μmol/L", "setting": "[7]; human", "result": "63 to 88", "unit": "%"},
      {"measurement": "IC50", "setting": "[5]", "result": "797 ± 142", "unit": "µM"},
      {"measurement": "Inhibition DDI index, UGT2B15", "setting": "[5]", "result": 0.56},
      {"measurement": "inhibition at 5000 μmol/L", "setting": "[5]; human, cDNA-expressed UGT2B15", "result": "60 to 88", "unit": "%"}
    ]},
    {"smiles": "CC1(C)S[C@@H]2[C@H](NC(=O)Cc3ccccc3)C(=O)N2[C@H]1C(=O)O", "note": "[A15, penicillin G]", "values": [
      {"measurement": "IC50", "setting": "[2]", "result": "56 ± 21", "unit": "µM"},
      {"measurement": "IC50", "setting": "[1]", "result": "308 ± 68", "unit": "µM"},
      {"measurement": "inhibition at 5000 μmol/L", "setting": "[4]", "result": "> 90", "unit": "%"}
    ]},
    {"smiles": "CC1(C)S[C@@H]2[C@H](NC(=O)[C@H](N)c3ccccc3)C(=O)N2[C@H]1C(=O)O", "note": "[A16, ampicillin]", "values": [
      {"measurement": "IC50", "setting": "[2]", "result": "42 ± 18", "unit": "µM"},
      {"measurement": "IC50", "setting": "[1]", "result": "2080 ± 283", "unit": "µM"},
      {"measurement": "inhibition at 5000 μmol/L", "setting": "[1]", "result": "56 to 88", "unit": "%"},
      {"measurement": "Inhibition DDI index, OATP1B3", "setting": "[3]", "result": 8.55},
      {"measurement": "inhibition at 5000 μmol/L", "setting": "[4]", "result": "> 90", "unit": "%"}
    ]}
  ]
}
